Test results published in patent US11278525B1, “Further molecules, compositions and methods for modulation of SIRT6” (SirTLab Corporation, priority 2017, dated 2022).

Tests used:
SIRT6 [1] = target: T1, SIRT6 (Homo sapiens, UniProt Q8N6T7); assay: Secondary validation assays: HPLC deacylation, fluorometric deacetylation, in vitro histone deacetylation; format: biochemical; settings: values only in FIGS. 1-3
Protocol: The activating effect of three compounds (ChemDiv ID E677-1326, E677-0945 and D715-0284) for SIRT6 was validated by conducting the following secondary assays. As previously described, D715-0284 is a stereoisomer of molecule 768382-41-8.
1. HPLC deacylation assay. SIRT6 was incubated with compounds and myristoyl-lysine peptide (corresponding to TNF-alpha sequence) at 37° C. The deacylation reactions were analyzed by reversed phase high-performance liquid chromatography on Kinetex C18 column by monitoring the formation of the deacylated product at 214 nm. […] Equally diluted DMSO served as control.
2. Fluorometric deacetylation assay. SIRT6 was incubated with compounds and fluorophore-labelled acetyl-lysine peptide (corresponding to histone H3 sequence) at 37° C. […] Results are expressed as a percentage of DMSO—treated control.
3. In vitro histone deacetylation assay. Chromatin was purified from HEK293T cells by two steps of lysis (with Nonidet P-40 lysis buffer). SIRT6 was incubated with chromatin proteins and the reaction mixture is then used for Western blot analysis. […] SIRT6 (0.5 μM) was incubated with chromatin fractions isolated from HEK293T cells in the presence of 10 micromolar NAD+ and compound D715-0284 or DMSO (control) at 37° C.

SIRT6 [2] = target: T1, SIRT6; assay: SIRT6 enzymatic activity assay with fluorophore (AMC)-labeled Lysin-myristoylated histone H3 peptide (de-myristoylation, trypsin release); format: biochemical; parameters: six-histidine tag; made in house; host or cells: Escherichia coli BL21; settings: for % activity 20 uM: compound 20 uM; for % activity 20 uM / % activity Max. conc. 100 uM: percentage of signal increase relative to control wells, Tables 1-2; for % activity Max. conc. 100 uM: compound 100 uM
Protocol: Human recombinant SIRT6 (sequence identifier: CAG33481.1; GI:4814651) was expressed in large scale in Escherichia coli strain BL21 as a six-histidine-tagged protein, after transformation of the expression plasmid pET28-SIRT6. The SIRT6 enzyme was purified from the bacteria culture broth in a two-step strategy. The first purification step was carried out by cation exchange chromatography on a HiTrap CM-Sepharose column (GE Healthcare) using an FPLC system. The second purification step was performed by immobilized metal ion affinity chromatography (IMAC) using a cobalt affinity column (Clontech).
The enzymatic activity assay is carried out in 96 or 384-well microplates using the purified recombinant SIRT6 and a fluorophore-labeled peptide substrate: 7-amino-4-methylcoumarin (AMC) that is quenched through conjugation to the C-terminal end of a Lysin-myristoylated histone H3 peptide. The activity assay procedure requires two steps, both performed in the same microplate. In the first step, the substrate is incubated with the purified SIRT6 protein along with the co-substrate nicotinamide adenine dinucleotide (NAD+). Upon de-myristoylation, the liberated ε-amino group of the lysine becomes a trypsin substrate. Treatment with trypsin in the second step releases the fluorophore resulting in an increase in fluorescence. Fluorescence intensity is measured using a fluorescent plate reader (excitation and emission at 370 nm and 450 nm, respectively). The fluorescence signal is directly proportional to SIRT6 enzymatic activity.
In the primary screening, compounds from a library (ChemDiv Inc.) were tested at a single concentration of 20 micromolar for their potential to modulate SIRT6 enzymatic activity. The assay was carried out in 384-well black well plates and all liquid handling was done using a robotic liquid handler. Purified recombinant SIRT6 (1 micromolar) was pre-incubated with each compound (or DMSO in control wells) for 15 minutes at room temperature. The first stage of the assay was initiated by adding a ‘substrate solution’ containing the myristoylated histone H3 peptide and NAD+(for final concentrations of 25 micromolar and 20 micromolar, respectively). After one hour incubation at 37° C., a Trypsin solution (6 mg/mL) was added for 30 minutes at room temperature. Fluorescence intensity was measured using a fluorescent plate reader (Tecan) with excitation at 370 nm and emission at 450 nm. The effect of each tested compound was evaluated by the change in the fluorescence intensity compared to control wells. […] To validate the primary screening results, each of the primary “hits” was re-tested, first at concentration of 20 micromolar in duplicates and later at a serial dilution ranging from 100 to 0.2 micromolar in triplicates.
Results of Assay—The results of the assay are given below in Tables 1-3.
Additional molecules were tested according to the methods and materials of Example 1. The amount tested was 20 uM for each molecule.

T1 sequence (Q8N6T7 whole entry): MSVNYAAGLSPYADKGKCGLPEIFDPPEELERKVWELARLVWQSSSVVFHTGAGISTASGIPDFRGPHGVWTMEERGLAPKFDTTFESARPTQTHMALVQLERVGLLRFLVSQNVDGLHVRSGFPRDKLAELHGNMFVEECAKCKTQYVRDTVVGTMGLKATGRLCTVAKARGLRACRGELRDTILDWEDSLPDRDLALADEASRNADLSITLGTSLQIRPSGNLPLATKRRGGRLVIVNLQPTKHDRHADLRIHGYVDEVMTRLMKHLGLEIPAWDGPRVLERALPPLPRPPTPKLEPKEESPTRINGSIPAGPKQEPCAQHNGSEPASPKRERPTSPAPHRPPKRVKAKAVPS

Compound	activating effect for SIRT6 in secondary assays (in words) (SIRT6 [1])	% activity 20 uM (SIRT6 [2]) [%]	% activity Max. conc. 100 uM (SIRT6 [2]) [%]	% Activity (SIRT6 [2]; amount tested 20 uM, Example 5, Table 9) [%]
Cc1cccc2sc(N(CCCN(C)C)C(=O)CCOc3ccccc3)nc12 [E677-0945]	validated	263	255	–
CN(C)CCCN(C(=O)CCOc1ccccc1)c1nc2c(F)cccc2s1 [E677-1326]	validated	287	252	–
CCc1nnc(NC(=O)CSc2nc(N)nc(SC)c2C#N)s1 [8001-8196]	–	–	25	–
CN(C)CCNC(=O)C1CCN(c2nc3ccc(-c4cncnc4)nc3s2)CC1 [T387-0941]	–	–	–	49
